Article PMC10303271, “Synthesis and Receptor Binding Studies of α5 GABAAR Selective Novel Imidazodiazepines Targeted for Psychiatric and Cognitive Disorders” (Molecules, 2023)
Like-named read-outs stand apart in the source and are kept apart here.

What was measured:
[1] = target: peripheral benzodiazepine receptors (PBR) (Rattus norvegicus, UniProt P16257); test: PDSP radioligand binding at PBR
From the text: The compounds were also screened at PDSP to determine any binding with peripheral benzodiazepine receptors (PBR). A number of biological processes are associated with PBR. The most prevalent are transportation of anions for mitochondrial transmembrane potential, biosynthesis of heme, regulation of neurological damage, proliferation, cell death (apoptosis), as well as regulation of steroidogenesis. The test compounds were screened in the primary binding assay to determine the % inhibition at PBR. […] These compounds were then subjected to a secondary screening to determine the Ki (nM) value for PBR receptors.
(§1) The NIMH PDSP assay protocol book [https://kidbdev.med.unc.edu/databases/PDSP%20Protocols%20II%202013-03-28.pdf accessed on 23 April 2023]. describes the protocols for primary and secondary radio-ligand binding assays. These assays were carried out in a final volume of 125 µL per well in the appropriate binding buffer.
(§2) The binding of a ligand to a receptor, ion channel, or transporter was determined in the […] of 10 µM of the appropriate reference compound. […] Plates were incubated in the dark for 90 min at rt, and the reactions were stopped by vacuum filtration onto 0.3% polyethyleneimine (PEI) soaked 96-well filter mats using a 96-well Filtermateharvester. This was followed by three washes with cold PBS buffer. Radioactivity was then counted on a Microbeta counter. Nonlinear regression was used to analyze the data with N = 6 replicates.

[2] = target: BZP rat brain site; test: PDSP binding at BZP rat brain site; conditions: for Ki: N = 2, read-out: Binding Affinity BZR Secondary Screening Ki; for Ki / Binding Affinity BZR % Inhibition (Primary): rat brain; for Binding Affinity BZR % Inhibition (Primary): at 10,000 nM, N = 5
Method: The BZR binding affinity of the test compounds was also measured using rat brain BzR. […] The efficacy of imidazodiazepines on the benzodiazepine receptor depends on various factors, including the specific subtype of the receptor they bind to, their chemical structure, and the dose.
as §1, §2

[3] = target: T1, 5-HT2B (Homo sapiens, UniProt P41595); test: PDSP primary binding 5-HT2B; conditions: 1.5 h; primary binding, 10,000 nM; last figure of the line = mean of the 4 before it; read-out: 5-HT2B, PDSP raw data, mean
T1 construct: purchased NIMH Psychoactive Drug Screening Program (PDSP)
T1 sequence (P41595 whole entry): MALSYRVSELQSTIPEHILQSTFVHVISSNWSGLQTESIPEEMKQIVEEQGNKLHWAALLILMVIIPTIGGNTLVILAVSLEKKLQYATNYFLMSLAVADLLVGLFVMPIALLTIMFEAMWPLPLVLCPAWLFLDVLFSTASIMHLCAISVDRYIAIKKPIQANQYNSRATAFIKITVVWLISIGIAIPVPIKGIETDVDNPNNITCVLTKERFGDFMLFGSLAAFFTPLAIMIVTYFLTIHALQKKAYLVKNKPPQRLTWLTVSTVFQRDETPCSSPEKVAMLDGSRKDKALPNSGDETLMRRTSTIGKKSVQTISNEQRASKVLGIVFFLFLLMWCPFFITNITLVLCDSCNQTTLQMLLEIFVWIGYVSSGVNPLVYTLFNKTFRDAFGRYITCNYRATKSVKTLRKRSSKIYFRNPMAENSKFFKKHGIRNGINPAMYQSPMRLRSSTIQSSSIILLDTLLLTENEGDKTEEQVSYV
Method: (§3) To determine if any off-target receptor-binding effects are present, all the novel ligands were sent to the National Institute of Mental Health (NIMH), Psychoactive Drug Screening Program (PDSP). The ligands were screened over a panel of 47 receptors, ion channels, and transporters to determine any other possible interactions with […]. The hERG-binding was also determined. […] No binding of the test compounds to calcium channels was observed. […] It is necessary to screen the compounds for hERG-binding during the early process of drug discovery. The unintentional binding of many drugs to hERG can cause blockade of hERG K+ channels in the heart, which can cause many side effects including cardiac arrhythmias and sudden death. […] All of the α5 imidazodiazepines were tested for hERG-binding.
as §1, §2

[4] = target: T2, Alpha2C (Homo sapiens, UniProt P18825); test: PDSP primary binding Alpha2C; conditions: 1.5 h; primary binding, 10,000 nM; last figure of the line = mean of the 4 before it; read-out: Alpha2C, PDSP raw data, mean
T2 construct: purchased NIMH Psychoactive Drug Screening Program (PDSP)
T2 sequence (P18825 1-462): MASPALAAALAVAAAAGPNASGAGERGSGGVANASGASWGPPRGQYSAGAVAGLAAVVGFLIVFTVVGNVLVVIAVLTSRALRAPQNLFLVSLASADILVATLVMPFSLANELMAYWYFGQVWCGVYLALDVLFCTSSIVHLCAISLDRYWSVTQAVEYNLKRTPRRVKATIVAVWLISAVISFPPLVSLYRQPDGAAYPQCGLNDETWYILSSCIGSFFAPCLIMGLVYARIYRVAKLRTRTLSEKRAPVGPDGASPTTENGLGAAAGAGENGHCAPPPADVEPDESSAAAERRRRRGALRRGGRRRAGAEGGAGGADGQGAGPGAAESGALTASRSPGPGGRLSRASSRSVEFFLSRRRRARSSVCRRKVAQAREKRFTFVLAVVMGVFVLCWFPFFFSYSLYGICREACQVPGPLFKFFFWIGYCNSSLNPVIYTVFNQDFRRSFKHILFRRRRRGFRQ
Method: as §3, §1, §2

[5] = target: T3, D2 (Homo sapiens, UniProt P14416); test: PDSP primary binding D2; conditions: 1.5 h; primary binding, 10,000 nM; last figure of the line = mean of the 4 before it; read-out: D2, PDSP raw data, mean
T3 construct: purchased NIMH Psychoactive Drug Screening Program (PDSP)
T3 sequence (P14416 whole entry): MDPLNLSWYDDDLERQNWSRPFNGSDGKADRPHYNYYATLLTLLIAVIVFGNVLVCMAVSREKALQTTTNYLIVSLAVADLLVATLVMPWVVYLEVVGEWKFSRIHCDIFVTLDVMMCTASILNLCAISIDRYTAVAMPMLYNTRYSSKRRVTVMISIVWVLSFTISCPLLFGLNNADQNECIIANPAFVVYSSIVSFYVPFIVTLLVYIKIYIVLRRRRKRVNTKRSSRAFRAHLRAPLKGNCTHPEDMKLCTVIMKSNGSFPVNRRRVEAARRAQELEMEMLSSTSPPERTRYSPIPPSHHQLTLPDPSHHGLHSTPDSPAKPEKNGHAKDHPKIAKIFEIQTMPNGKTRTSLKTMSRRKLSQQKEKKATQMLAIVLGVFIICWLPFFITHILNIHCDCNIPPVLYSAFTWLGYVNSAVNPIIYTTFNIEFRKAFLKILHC
Method: as §3, §1, §2

[6] = target: T4, H3 (Homo sapiens, UniProt Q9Y5N1); test: PDSP primary binding H3; conditions: primary binding, 10,000 nM; last figure of the line = mean of the 4 before it; read-out: H3, PDSP raw data, mean
T4 construct: purchased NIMH Psychoactive Drug Screening Program (PDSP)
T4 sequence (Q9Y5N1 whole entry): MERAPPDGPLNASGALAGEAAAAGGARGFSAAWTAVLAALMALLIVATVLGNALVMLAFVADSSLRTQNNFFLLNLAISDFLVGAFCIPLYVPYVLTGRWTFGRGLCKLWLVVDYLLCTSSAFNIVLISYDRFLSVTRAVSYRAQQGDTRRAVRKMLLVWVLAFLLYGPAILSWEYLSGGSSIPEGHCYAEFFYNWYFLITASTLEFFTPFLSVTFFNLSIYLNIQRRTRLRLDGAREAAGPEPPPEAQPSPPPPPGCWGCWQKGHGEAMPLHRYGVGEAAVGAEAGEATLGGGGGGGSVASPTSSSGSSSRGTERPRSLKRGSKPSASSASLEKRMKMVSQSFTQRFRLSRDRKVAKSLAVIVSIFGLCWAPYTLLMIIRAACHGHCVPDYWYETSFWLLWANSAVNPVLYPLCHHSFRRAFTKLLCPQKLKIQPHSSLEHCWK
Method: as §3, §1, §2

[7] = target: T5, Alpha2Beta4 (Rattus norvegicus, UniProt P12389+P12392); test: PDSP primary binding Alpha2Beta4; conditions: primary binding, 10,000 nM; last figure of the line = mean of the 4 before it; read-out: Alpha2Beta4, PDSP raw data, mean
T5 construct: purchased NIMH Psychoactive Drug Screening Program (PDSP)
T5 sequence (P12389 28-511): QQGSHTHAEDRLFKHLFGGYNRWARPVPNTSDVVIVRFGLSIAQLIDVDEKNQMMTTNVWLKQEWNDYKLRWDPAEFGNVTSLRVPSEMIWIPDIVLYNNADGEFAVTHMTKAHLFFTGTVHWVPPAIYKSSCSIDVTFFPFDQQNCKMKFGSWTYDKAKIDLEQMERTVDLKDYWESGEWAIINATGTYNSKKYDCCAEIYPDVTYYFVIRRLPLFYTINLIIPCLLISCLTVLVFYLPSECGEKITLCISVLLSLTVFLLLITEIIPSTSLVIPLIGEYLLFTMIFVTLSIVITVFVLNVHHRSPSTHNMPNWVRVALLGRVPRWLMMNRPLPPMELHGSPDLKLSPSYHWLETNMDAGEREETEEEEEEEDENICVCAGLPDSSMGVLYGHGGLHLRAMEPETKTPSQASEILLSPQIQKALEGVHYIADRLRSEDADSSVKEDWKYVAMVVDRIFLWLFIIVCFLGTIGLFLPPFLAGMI
T5 sequence (P12392 21-495): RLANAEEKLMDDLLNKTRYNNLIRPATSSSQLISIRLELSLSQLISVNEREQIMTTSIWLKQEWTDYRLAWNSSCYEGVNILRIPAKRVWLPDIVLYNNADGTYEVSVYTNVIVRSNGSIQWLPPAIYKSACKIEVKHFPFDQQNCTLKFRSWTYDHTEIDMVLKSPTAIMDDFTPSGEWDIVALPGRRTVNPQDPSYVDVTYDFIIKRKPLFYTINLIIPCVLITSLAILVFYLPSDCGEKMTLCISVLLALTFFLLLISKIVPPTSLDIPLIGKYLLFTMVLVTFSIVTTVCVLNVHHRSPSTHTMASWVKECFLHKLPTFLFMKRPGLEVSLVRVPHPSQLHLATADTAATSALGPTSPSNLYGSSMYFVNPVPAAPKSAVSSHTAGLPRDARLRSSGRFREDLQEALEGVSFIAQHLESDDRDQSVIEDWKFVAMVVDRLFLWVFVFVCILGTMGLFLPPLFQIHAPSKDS
Method: as §3, §1, §2

[8] = system: Alpha7; test: PDSP primary binding Alpha7; conditions: primary binding, 10,000 nM; last figure of the line = mean of the 4 before it
Method: as §3, §1, §2

[9] = target: T6, V1A (Homo sapiens, UniProt P37288); test: PDSP primary binding V1A; conditions: primary binding, 10,000 nM; last figure of the line = mean of the 4 before it; read-out: V1A, PDSP raw data, mean
T6 construct: purchased NIMH Psychoactive Drug Screening Program (PDSP)
T6 sequence (P37288 whole entry): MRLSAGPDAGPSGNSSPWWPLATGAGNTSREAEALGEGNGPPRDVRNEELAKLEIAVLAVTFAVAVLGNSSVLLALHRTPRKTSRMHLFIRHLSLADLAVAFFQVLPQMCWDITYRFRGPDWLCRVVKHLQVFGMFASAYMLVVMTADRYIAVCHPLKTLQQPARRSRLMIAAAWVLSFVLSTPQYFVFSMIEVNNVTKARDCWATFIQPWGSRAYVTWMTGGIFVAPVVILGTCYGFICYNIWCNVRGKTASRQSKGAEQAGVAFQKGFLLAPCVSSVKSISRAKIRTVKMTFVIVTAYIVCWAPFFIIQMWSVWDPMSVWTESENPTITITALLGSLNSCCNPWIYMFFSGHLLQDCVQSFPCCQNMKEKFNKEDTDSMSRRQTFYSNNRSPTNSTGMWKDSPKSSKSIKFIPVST
Method: as §3, §1, §2

[10] = target: T7, V1B (Homo sapiens, UniProt P47901); test: PDSP primary binding V1B; conditions: primary binding, 10,000 nM; last figure of the line = mean of the 4 before it; read-out: V1B, PDSP raw data, mean
T7 construct: purchased NIMH Psychoactive Drug Screening Program (PDSP)
T7 sequence (P47901 1-424): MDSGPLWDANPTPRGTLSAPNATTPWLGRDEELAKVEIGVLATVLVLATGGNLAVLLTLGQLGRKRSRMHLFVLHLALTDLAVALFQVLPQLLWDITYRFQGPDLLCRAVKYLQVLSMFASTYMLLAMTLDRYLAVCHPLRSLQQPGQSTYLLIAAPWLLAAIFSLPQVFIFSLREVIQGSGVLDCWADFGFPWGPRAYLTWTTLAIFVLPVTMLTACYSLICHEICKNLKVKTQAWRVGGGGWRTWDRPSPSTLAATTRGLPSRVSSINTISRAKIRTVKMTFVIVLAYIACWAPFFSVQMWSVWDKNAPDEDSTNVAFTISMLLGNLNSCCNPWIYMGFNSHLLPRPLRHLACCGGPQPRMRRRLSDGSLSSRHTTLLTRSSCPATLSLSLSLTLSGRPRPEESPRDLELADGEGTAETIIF
Method: as §3, §1, §2

[11] = 1.5 h, primary binding, 10,000 nM, last figure of the line = mean of the 4 before it, some tables list PBR twice, read-out: PBR, PDSP raw data, mean

Chain of peripheral benzodiazepine receptors (PBR) (P16257 whole entry): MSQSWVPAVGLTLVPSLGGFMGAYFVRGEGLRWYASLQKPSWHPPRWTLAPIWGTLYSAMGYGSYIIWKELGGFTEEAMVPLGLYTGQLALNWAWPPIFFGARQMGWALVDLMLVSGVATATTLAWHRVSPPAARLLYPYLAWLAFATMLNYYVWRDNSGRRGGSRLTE

Compound	Ki [1]	inhibition at 10 µM [1, 11]	inhibition at 10 µM ([1]; at 10,000 nM, N = 5, read-out: Binding Affinity at PBR % Inhibition (Primary))	Ki [2]	BZP Rat Brain Site, PDSP raw data, mean ([2]; primary binding, 10,000 nM, last figure of the line = mean of the 4 before it)	inhibition at 10 µM [3]	inhibition at 10 µM [4]	inhibition at 10 µM [5]	inhibition at 10 µM [6]	inhibition at 10 µM [7]	Alpha7, PDSP raw data, mean [8]	inhibition at 10 µM [9]	inhibition at 10 µM [10]	Binding Affinity BZR % Inhibition (Primary) [2]
C#Cc1ccc2c(c1)C(c1ccccc1F)=N[C@H](C)c1c(C(=S)N(C)C)ncn1-2 [Compound 33, (R)-8-Ethynyl-6-(2′-fluorophenyl)-N,N,4-trimethyl-4H-benzo[f]imidazo[1,5-a][1,4]diazepine-3-carbothioamide]	1.71 µM	22.3%	66.4 ± 3.3%	0.871 ± 0.00872 µM	94.79%	26.5%	12.9%	0.27%	5.94%	4.82%	-18.33%	15.6%	1.4%	–
C#Cc1ccc2c(c1)C(c1ccccn1)=N[C@@H](C)c1c(C(=O)NC)ncn1-2 [Compound 23, (S)-8-Ethynyl-N,4-dimethyl-6-(pyridin-2′-yl)-4H-benzo[f]imidazo[1,5-a][1,4]diazepine-3-carboxamide]	–	34.9%	–	1.3 ± 0.394 µM	–	-3.33%	-0.12%	-4.79%	-12.8%	4.5%	-5.28%	25.4%	-4.18%	52.97 ± 6.26%
C[C@H]1N=C(c2ccccc2F)c2cc(-c3ccccc3)ccc2-n2cnc(C(=O)N(C)C)c21 [Compound 5, (R)-6-(2′-Fluorophenyl)-N,N,4-trimethyl-8-phenyl-4H-benzo[f]imidazo[1,5-a][1,4]diazepine-3-carboxamide]	–	22.3%	–	0.123 ± 0.0223 µM	–	26.5%	12.9%	0.27%	5.94%	4.82%	-18.33%	15.6%	1.4%	94.79 ± 1.08%
C#Cc1ccc2c(c1)C(c1ccccn1)=N[C@@H](C)c1c(C(=O)N(C)C)ncn1-2 [Compound 31, (S)-8-Ethynyl-N,N,4-trimethyl-6-(pyridin-2′-yl)-4H-benzo[f]imidazo[1,5-a][1,4]diazepine-3-carboxamide]	–	4.44%	–	0.838 ± 0.107 µM	–	-3.38%	7.52%	3.47%	-5.55%	6.58%	-3.44%	3.6%	24.3%	83.57 ± 1.57%
